Data: ChEMBL document CHEMBL5537113, “Discovery of 1,2-diaryl-3-oxopyrazolidin-4-carboxamides as a new class of MurA enzyme inhibitors and characterization of their antibacterial activity” (Eur J Med Chem, 2023)
The source made the active and inactive calls. No cut-off for these calls is given here.

Tests used:
Staphylococcus aureus [1] = experiment: Antibacterial activity against Staphylococcus aureus Newman D2C NCTC 10833 assessed as reduction in microbial growth incubated for 16 hrs by serial dilution method; type: functional
[2] = biological target: UDP-N-acetylglucosamine 1-carboxyvinyltransferase (Escherichia coli K-12) (UniProt P0A749); experiment: Inhibition of Escherichia coli K12 His-tagged MurA expressed in Escherichia coli BL21 cells at 50 uM using UNAG as substrate pre incubated for 15 mins followed by substrate addition and measured after 15 mins by microplate reader analysis relative to control; settings: time 30.0 min
Chain of UDP-N-acetylglucosamine 1-carboxyvinyltransferase (Escherichia coli K-12) (P0A749 whole entry): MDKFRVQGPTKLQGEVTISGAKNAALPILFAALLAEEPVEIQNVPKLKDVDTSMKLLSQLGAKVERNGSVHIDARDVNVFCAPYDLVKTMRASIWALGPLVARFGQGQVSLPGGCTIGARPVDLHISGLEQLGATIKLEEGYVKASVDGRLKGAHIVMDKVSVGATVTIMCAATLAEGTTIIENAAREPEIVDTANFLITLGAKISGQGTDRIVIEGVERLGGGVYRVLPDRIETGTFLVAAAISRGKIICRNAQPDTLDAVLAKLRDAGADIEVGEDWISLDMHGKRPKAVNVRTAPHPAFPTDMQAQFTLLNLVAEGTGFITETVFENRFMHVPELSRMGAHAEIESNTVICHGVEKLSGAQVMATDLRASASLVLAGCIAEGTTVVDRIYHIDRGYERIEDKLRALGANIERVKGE

Escherichia coli = experiment: Antibacterial activity against Escherichia coli harboring tolC deletion mutant assessed as reduction in microbial growth incubated for 16 hrs by serial dilution method; type: functional
[3] = biological target: UDP-N-acetylglucosamine 1-carboxyvinyltransferase (Escherichia coli K-12, UniProt P0A749); experiment: Inhibition of Escherichia coli K12 His-tagged MurA expressed in Escherichia coli BL21 cells using UNAG as substrate pre incubated for 15 mins followed by substrate addition and measured after 15 mins by microplate reader analysis
Chain of UDP-N-acetylglucosamine 1-carboxyvinyltransferase (P0A749 whole entry): as above

Staphylococcus aureus [4] = experiment: Antibacterial activity against methicillin resistant Staphylococcus aureus NRS119 assessed as reduction in microbial growth by CLSI based broth microdilution method; type: functional
Staphylococcus aureus [5] = experiment: Antibacterial activity against methicillin resistant Staphylococcus aureus USA300 assessed as reduction in microbial growth by CLSI based broth microdilution method; type: functional
Clostridioides difficile = experiment: Antibacterial activity against Clostridioides difficile ATCC BAA1870 assessed as reduction in microbial growth incubated for 48 hrs by broth microdilution method; type: functional
Staphylococcus aureus [6] = experiment: Antibacterial activity against methicillin sensitive Staphylococcus aureus NRS107 assessed as reduction in microbial growth by CLSI based broth microdilution method; type: functional
Staphylococcus aureus [7] = experiment: Antibacterial activity against vancomycin resistant Staphylococcus aureus 10 assessed as reduction in microbial growth by CLSI based broth microdilution method; type: functional

SMILES	MIC (Staphylococcus aureus [1]) [µM]	inhibition [2]	MIC (Escherichia coli) [µM]	IC50 [3] [µM]	MIC (Staphylococcus aureus [4]) [µg/mL]	MIC (Staphylococcus aureus [5]) [µg/mL]	MIC (Clostridioides difficile) [µg/mL]	MIC (Staphylococcus aureus [6]) [µg/mL]	MIC (Staphylococcus aureus [7]) [µg/mL]
O=C(NCc1ccncc1)C1CN(c2cccc(Cl)c2)N(c2cccc(Cl)c2)C1=O (centres undefined)	> 40	inactive	> 40	–	–	–	–	–	–
O=C(Nc1cncc(Cl)c1)C1CN(c2cccc(Cl)c2)N(c2cccc(Cl)c2)C1=O (centres undefined)	> 40	18.2%	> 40	–	–	–	–	–	–
CSc1nnc(NC(=O)C2CN(c3cccc(Cl)c3)N(c3cccc(Cl)c3)C2=O)s1 (centres undefined)	> 40	63.4%	38	26.9	–	–	–	–	–
O=C(Nc1cccc(-c2cn[nH]c2)c1)C1CN(c2cccc(Cl)c2)N(c2cccc(Cl)c2)C1=O (centres undefined)	> 40	60.4%	> 40	31	–	–	–	–	–
O=C1SCCC1NC(=O)C1CN(c2cccc(Cl)c2)N(c2cccc(Cl)c2)C1=O (centres undefined)	11	35%	17	–	–	–	–	–	–
O=C(Nc1ccc2[nH]ncc2c1)C1CN(c2cccc(Cl)c2)N(c2cccc(Cl)c2)C1=O (centres undefined)	> 40	59.5%	23	44.1	–	–	–	–	–
N#Cc1cnc(NC(=O)C2CN(c3ccccc3)N(c3ccccc3)C2=O)s1 (centres undefined)	> 40	inactive	> 40	–	–	–	–	–	–
O=C(Nc1ccc2ncsc2c1)C1CN(c2cccc(Cl)c2)N(c2cccc(Cl)c2)C1=O (centres undefined)	> 40	44.7%	> 40	–	–	–	–	–	–
CC(=O)NC[C@H]1CN(c2ccc(N3CCOCC3)c(F)c2)C(=O)O1 [LINEZOLID]	–	–	–	–	32	1	1	0.5	0.5
O=C(NCc1cccnc1)C1CN(c2cccc(Cl)c2)N(c2cccc(Cl)c2)C1=O (centres undefined)	> 40	11.8%	> 40	–	–	–	–	–	–
O=C(Nc1ncc(Cl)s1)C1CN(c2cccc(Cl)c2)N(c2cccc(Cl)c2)C1=O (centres undefined)	> 40	67.7%	> 40	24	–	–	–	–	–
O=C(NCc1ccco1)C1CN(c2cccc(Cl)c2)N(c2cccc(Cl)c2)C1=O (centres undefined)	> 40	34%	> 40	–	–	–	–	–	–
O=C(Nc1ccc2cn[nH]c2c1)C1CN(c2cccc(Cl)c2)N(c2cccc(Cl)c2)C1=O (centres undefined)	> 40	65.2%	20	35.4	–	–	–	–	–
O=C(Nc1ccsc1)C1CN(c2cccc(Cl)c2)N(c2cccc(Cl)c2)C1=O (centres undefined)	> 40	24.7%	> 40	–	–	–	–	–	–
